Results on 1 molecule are retold here after BindingDB's records for doi:10.1021/acs.biochem.6b00486 (Academia Sinica, 2016).

The target in assay [1] is T1, IspB protein (Escherichia coli (strain 55989 / EAEC), UniProt B7LHQ0). Kind of assay: Fluorescent Assay.
Assay [2] concerns the target T1, IspB protein. Kind of assay: Radioactive Assay.

T1 sequence (B7LHQ0 whole entry): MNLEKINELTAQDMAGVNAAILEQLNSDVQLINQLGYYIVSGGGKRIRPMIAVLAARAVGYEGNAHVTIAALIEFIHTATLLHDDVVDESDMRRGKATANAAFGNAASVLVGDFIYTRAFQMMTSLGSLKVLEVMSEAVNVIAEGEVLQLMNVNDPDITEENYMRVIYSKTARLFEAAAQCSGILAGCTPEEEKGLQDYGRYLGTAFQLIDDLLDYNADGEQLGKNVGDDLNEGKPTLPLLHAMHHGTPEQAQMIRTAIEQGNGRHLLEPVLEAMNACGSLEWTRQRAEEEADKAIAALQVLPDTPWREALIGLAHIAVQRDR

For the molecule `O=P(O)(O)C(O)(Cn1ccnc1)P(=O)(O)O`, the half-maximal inhibitory concentration (IC50) (commonly the midpoint of a concentration-inhibition curve) came to 220 nM against IspB protein [1] and 290 nM at IspB protein [2].
